Data reported in patent publication US9814709B2, “Bruton's tyrosine kinase inhibitor” (HEFEI INSTITUTES OF PHYSICAL SCIENCE, CHINESE ACADEMY OF …, priority 2014, dated 2017).
Like-named read-outs stand apart in the source and are kept apart here.

Experiments:
[1] = biological target: T1, BTK WT protein (Homo sapiens, UniProt Q06187); test: Btk acellular kinase assay, BTK WT protein purified from transfected 293T cells; type: biochemical; conditions: 100 μM ATP
T1 construct: made in house; host or cells: 293T cells
Protocol: The BTK wild-type plasmid and the BTK mutant plasmid (C481S) were respectively transfected into 293T cells (purchased from ATCC), and the resultant cells were marked as BTK WT 293T cells and BTK C481S 293T cells, respectively. After cell culture for 2 days, the cells were harvested and purified to give BTK WT and BTK C481S proteins. The compounds of formula (I) were added to the BTK WT and BTK C481S proteins at different concentrations of 3 nM, 10 nM, 30 nM, 100 nM, 300 nM and 1000 nM, respectively, and reacted at room temperature for 30 min, followed by the addition of 100 μM ATP at 37° C. and reacting for 20 min.

[2] = system: human lung adenocarcinoma cells A549 (expressing wild-type EGFR gene); test: Cancer cell growth, Cell Titer-Glo; type: cell-based; conditions: A549, 72 hrs, read-out: Half inhibitory concentration IC50
Excerpt: (§1) We further assessed the selectivity of Compound 1 to inhibit the proliferation of cancer cells, by testing the effect of Btk inhibitor on the growth of cancer cells. In the example, we used B-lymphoma cell Ramos, cervical cancer cells HeLa, prostate cancer cells DU145, RV-1 and C4-2, colon cancer cells HCT116, blood cancer cells K562, B-cell lymphoma cells U2932, diffuse large B-cell lymphoma cells OCI-LY10, diffuse histiocytic lymphoma cells SU-DHL-2, diffuse large B-cell lymphoma cells TMD8, human non-small cell lung cancer cells H1975 (expressing EGFR L858R/T790M double mutant gene), human lung adenocarcinoma cells A549 (expressing wild-type EGFR gene), human non-small cell lung cancer cells H460 (expressing wild-type EGFR gene), mantel cell lymphoma (MCL) cells Z-138, EB virus infected human peripheral lymphocyte cells JVM-2, MCL cells REC-1, leukemia cells AML-3, acute promyelocytic leukemia cell line NB-4(Lu+), MDS-RAEB (myelodysplastic syndrome-excessive blasts) cell line SKM-1 human leukemia cell Nomo-1, human B-cell leukemia cell line NALM6, human leukocyte leukemia cells HEL, human T-cell lymphoma cells PF-382, acute myelocytic leukemia (AML) cell line MOLM14, AML cell line MOLM13, human Burkitt's lymphoma cells Namalwa, mouse pro-B cells BaF3, all of where were purchased from ATCC. Also used were mouse TEL-EGFR-BaF3 (stably expressing TEL-EGFR activated kinase), mouse TEL-EGFR/T790-BaF3 cells (stably expressing TEL-EGFR-T790M activated mutant kinase), mouse TEL-EGFR/L858R-BaF3 cells (stably expressing TEL-EGFR-L858R activated mutant kinase), mouse TEL-EGFR/T790/L858R-BaF3 (stably expressing TEL-EGFR-T790M/L858R activated mutant kinase), mouse TEL-BMX-BaF3 cells (stably expressing TEL-BMX activated kinase), mouse TEL-JAK1-BaF3 cells (stably expressing TEL-JAK1 activated kinase), mouse TEL-JAK2-BaF3 cells (stably expressing TEL-JAK2 activated kinase), mouse TEL-JAK3-BaF3 cells (stably expressing TEL-JAK3 activated kinase), where were all established by our laboratory via the following method: the kinase domain sequences of human EGFR, BMX, JAK1, JAK2, JAK3 were amplified respectively by PCR, and these kinase were inserted into the MSCV-Puro vectors with N-terminal TEL segment (Clontech); if there was a mutation, the mutation of the corresponding site was conducted by Site-Directed Mutagenesis kit (Stratagene); the resultants were stably transfected into mouse BaF3 cells by the means of retrovirus, and the IL-3 growth factors were removed, and eventually the EGFR, BMX, JAK1, JAK2, JAK3-transferred protein dependent cell lines were obtained.
(§2) In the example, different concentrations (0.000508 μM, 0.00152 μM, 0.00457 μM, 0.0137 μM, 0.0411 μM, 0.123 μM, 0.370 μM, 1.11 μM, 3.33 μM, 10 μM) of Compound 1 and Compound 19 were added into above cells, and were incubated for 72 hrs. The number of viable cells was determined by quantitating ATP in viable cells using Cell Titer-Glo® (Promega, U.S.) chemiluminescence cell viability assay kit.

[3] = system: human leukemia cell Nomo-1; test: Cancer cell growth, Cell Titer-Glo; type: cell-based; conditions: Nomo-1, 72 hrs, read-out: Half inhibitory concentration IC50
Excerpt: as §1, §2

[4] = system: AML cell line MOLM13; test: Cancer cell growth, Cell Titer-Glo; type: cell-based; conditions: Homo sapiens, MOLM-13; MOLM13, 72 hrs; read-out: Half inhibitory concentration IC50
Excerpt: as §1, §2

[5] = system: blood cancer cells K562; test: Cancer cell growth, Cell Titer-Glo; type: cell-based; conditions: Homo sapiens; K562, 72 hrs; read-out: Half inhibitory concentration IC50
Excerpt: as §1, §2

[6] = system: human leukocyte leukemia cells HEL; test: Cancer cell growth, Cell Titer-Glo; type: cell-based; conditions: 72 hrs, read-out: Half inhibitory concentration IC50
Excerpt: as §1, §2

[7] = system: leukemia cells AML-3; test: Cancer cell growth, Cell Titer-Glo; type: cell-based; conditions: AML3; AML-3, 72 hrs; read-out: Half inhibitory concentration IC50
Excerpt: as §1, §2

[8] = system: MCL cells REC-1; test: Cancer cell growth, Cell Titer-Glo; type: cell-based; conditions: Homo sapiens, Rec1; REC-1, 72 hrs; read-out: Half inhibitory concentration IC50
Excerpt: as §1, §2

[9] = system: prostate cancer cells RV-1; test: Cancer cell growth, Cell Titer-Glo; type: cell-based; conditions: RV-1, 72 hrs; read-out: Half inhibitory concentration IC50
Excerpt: as §1, §2

[10] = system: mantel cell lymphoma (MCL) cells Z-138; test: Cancer cell growth, Cell Titer-Glo; type: cell-based; conditions: Homo sapiens; Z-138, 72 hrs; read-out: Half inhibitory concentration IC50
Excerpt: as §1, §2

[11] = system: B-cell lymphoma cells U2932; test: Cancer cell growth, Cell Titer-Glo; type: cell-based; conditions: Homo sapiens; U2932, 72 hrs; read-out: Half inhibitory concentration IC50
Excerpt: as §1, §2

[12] = system: EB virus infected human peripheral lymphocyte cells JVM-2; test: Cancer cell growth, Cell Titer-Glo; type: cell-based; conditions: JVM-2, 72 hrs, read-out: Half inhibitory concentration IC50
Excerpt: as §1, §2

[13] = system: colon cancer cells HCT116; test: Cancer cell growth, Cell Titer-Glo; type: cell-based; conditions: Homo sapiens, HCT-116; HCT116, 72 hrs; read-out: Half inhibitory concentration IC50
Excerpt: as §1, §2

[14] = system: mouse TEL-JAK3-BaF3 cells (stably expressing TEL-JAK3 activated kinase); test: Cell growth, Cell Titer-Glo; type: cell-based; conditions: TEL-JAK3-BaF3, 72 hrs, read-out: Half inhibitory concentration IC50
Excerpt: as §1, §2

[15] = system: mouse pro-B cells BaF3; test: Cell growth, Cell Titer-Glo; type: cell-based; conditions: BaF3, 72 hrs (listed twice in Table 3), read-out: Half inhibitory concentration IC50
Excerpt: as §1, §2

T1 sequence (Q06187 whole entry): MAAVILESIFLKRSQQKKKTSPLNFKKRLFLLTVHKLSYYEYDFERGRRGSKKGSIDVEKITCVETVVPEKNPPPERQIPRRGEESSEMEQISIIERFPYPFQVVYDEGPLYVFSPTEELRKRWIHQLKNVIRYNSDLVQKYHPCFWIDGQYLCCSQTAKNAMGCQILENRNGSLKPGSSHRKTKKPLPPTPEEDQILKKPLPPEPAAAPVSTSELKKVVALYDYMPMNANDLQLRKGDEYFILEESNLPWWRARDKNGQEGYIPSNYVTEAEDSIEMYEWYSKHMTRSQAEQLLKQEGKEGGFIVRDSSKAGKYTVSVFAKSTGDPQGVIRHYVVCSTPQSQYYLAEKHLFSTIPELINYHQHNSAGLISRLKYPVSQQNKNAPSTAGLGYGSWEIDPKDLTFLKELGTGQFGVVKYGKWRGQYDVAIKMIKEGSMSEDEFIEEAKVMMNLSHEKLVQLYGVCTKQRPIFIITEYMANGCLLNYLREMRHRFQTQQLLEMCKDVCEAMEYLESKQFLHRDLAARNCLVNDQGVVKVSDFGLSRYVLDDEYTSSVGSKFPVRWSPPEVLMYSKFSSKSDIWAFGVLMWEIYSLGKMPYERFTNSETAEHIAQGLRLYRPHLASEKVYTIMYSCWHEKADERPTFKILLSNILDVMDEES

SMILES	IC50 ([1]; 30 min room temperature preincubation, 37° C., 20 min)	IC50 [2]	IC50 [3]	IC50 [4]	IC50 [5]	IC50 [6]	IC50 [7]	IC50 [8]	IC50 [9]	IC50 [10]	IC50 [11]	IC50 [12]	IC50 [13]	IC50 [14]	IC50 [15]	IC50 ([15]; Mus musculus, BaF3, 72 h)	inhibitory effect on BTK WT ([1]; 3-1000 nM)
C=CC(=O)Nc1cc(-n2c(=O)ccc3cnc4ccc(-n5cccn5)cc4c32)ccc1C [Compound 1, N-(2-methyl-5-(2-oxo-9-(1H-pyrazol-1-yl)benzo[H][1,6]naphthyridin-1(2H)-yl)phenyl)acrylamide]	0.056 µM	3.76 µM	4.9 µM	0.59 µM	> 10 µM	1.8 µM	7.3 µM	1.6 µM	> 10 µM	8.5 µM	1.15 µM	3.4 µM	> 10 µM	2.3 µM	4.28 µM	4.2 µM	–
CCC(=O)Nc1cc(-n2c(=O)ccc3cnc4ccc(-n5cccn5)cc4c32)ccc1C [Compound 19, N-(2-methyl-5-(2-oxo-9-(1H-pyrazol-1-yl)benzo[H][1,6]naphthyridin-1(2H)-yl)phenyl) propionamide]	–	> 10 µM	> 10 µM	> 10 µM	> 10 µM	> 10 µM	> 10 µM	> 10 µM	> 10 µM	> 10 µM	> 10 µM	> 10 µM	> 10 µM	> 10 µM	–	> 10 µM	no inhibitory effect
